For test [1], the system named is arthrite chronique à l'adjuvant. In words: Anti-inflammatory activity: chronic adjuvant arthritis (preventive treatment). It is filed as in vivo, rat. The procedure: L'injection d'adjuvant du type Freund dans une patte postérieure provoque, chez le rat, l'apparition rapide d'une lésion inflammatoire primaire dans cette patte, puis, après un temps de latence de 13 à 15 jours, le déclenchement d'une arthrite secondaire affectant notamment l'autre patte postérieure. Le test est pratiqué sur des rats mâles âgés de 42 à 50 jours, qui reçoivent en injection intraplantaire, 0,1 ml d'adjuvant de type "Freund" (suspension dans l'huile de vaseline de 6 mg par ml de mycobacterium butyricum tués).
Les animaux reçoivent le produit étudié, par voie orale, du jour 0 (jour de l'injection de l'adjuvant) jusqu'à la veille du sacrifice, pratiqué le jour 17. Des animaux témoins arthritiques, des animaux témoins normaux ne reçoivent que le véhicule. Les critères d'appréciation de l'activité des substances étudiées sont les augmentations de volume des pattes postérieures non injectées (inflammation secondaire) par rapport au volume moyen des pattes correspondantes de témoins normaux.
On détermine la DA50, c'est-à-dire la dose qui diminue de 50% les augmentations de volume des pattes postérieures des animaux traités par rapport aux animaux témoins.

Test [2] deals with mouvements répétés d'étirement et de torsion. In words: Analgesic activity: acetic acid-induced stretching (writhing) test, Koster. It is filed as in vivo, souris. As to conditions: 0.25 h; mouse, oral route half an hour before i.p. acetic acid 100 mg/kg; stretches counted for 15 min; dose giving 50 % decrease in number of stretches vs controls; read-out: DA50 (the source's name). An excerpt: Le test employé est basé sur le fait signalé par R. KOSTER et Coll., (Fed. Proc. 1959, 16412) selon lequel l'injection intrapéritonéale d'acide acétique provoque, chez la souris, des mouvements répétés d'étirement et de torsion pouvant persister pendant plus de six heures. Les analgésiques préviennent ou diminuent ce syndrome qui peut être considéré comme l'extériorisation d'une douleur abdominale diffuse. On utilise une solution d'acide acétique à 1 % dans l'eau. La dose déclenchant le syndrome est dans ces conditions de 0,01 cm^3/g, soit 100 mg/kg d'acide acétique.
Le produit étudié est administré par voie buccale une demi-heure avant l'injection d'acide acétique, les souris étant à jeun depuis la veille de l'expérience.
Les étirements sont observés et comptés pour chaque souris pendant une période d'observation de quinze minutes commençant aussitôt après l'injection d'acide acétique.
Les résultats sont exprimés au moyen de la DA50, c'est-à-dire la dose qui permet d'obtenir une diminution de 50 % du nombre des étirements par rapport aux animaux témoins.

Molecules are shown by their SMILES.

On to `COc1ccc(-n2c(-c3ccc(N(C)C)cc3)nnc2C(C)O)cc1` (stereo not drawn) [5-/4-(diméthylamino) phényl/ 4-(4-méthoxyphényl)α-méthyl 4H-1,2,4-triazole 3-méthanol], for which the activité anti-inflammatoire result in test [1] (general statement in the description: models of chronic inflammation) was “une certaine activité anti-infiammatoire”. For `COc1ccc(-n2c(-c3ccc(N(C)C)cc3)nnc2[C@H](C)O)cc1` [Exemple 11, 5-/4-(diméthylamino)-phényl/ 4-(4-méthoxyphényl)α-méthyl 4H-1,2,4-triazol-3-méthanol], the “activité anti-inflammatoire (arthrite chronique à l'adjuvant)” value in test [1] (male rats, oral route from day 0 to the day before sacrifice on day 17, volume increase of non-injected hind paws (secondary inflammation), result given in words only) is “activité notable”. Further, the ED50 in test [2] was determined as 4 mg/kg.

The values are drawn from EP0176444A1, “Process for the preparation of derivatives of 4H-1,2,4-triazole, triazoles so obtained, their use as medicaments, and pharmaceutical compositons containing them” (ROUSSEL-UCLAF, priority 1984, dated 1986).
